From patent publication US11938212B2, “Skin care compositions” (Colgate-Palmolive Company, priority 2022, dated 2024)

What was measured:
[1] = system: human derived keratinocytes; assay: ROS detection in H2O2-treated human derived keratinocytes (Example 2: alpha-tocopherol, EGT, sodium PCA); conditions: vs F (0.1 wt.% DMSO + 0.3 wt.% H2O2); alpha-tocopherol 0.001%, EGT 0.01%, Na PCA 0.01%; 30 min treatment
Experimental: Keratinocytes were treated with exogenous 0.3 wt. % hydrogen peroxide to induce reactive oxygen species (ROS) production. […] Changes in ROS production were assessed using a ROS Detection Assay Kit and fluorescence microplate reader.
Cell Culture Treatment • 500 uL of each treatment sample was directly applied to the 24-well plates and incubated for 30 mins. • Post incubation: each well was washed with the wash buffer (1×) provided. • 250 uL of green Fluorescent (GF) dye containing media (2.5 uL of GF dye/250 uL of media) was then added to each well and incubate for 60 mins. • Post incubation, Fluorescence was read on a microplate reader at 490/525.

[2] = system: human derived keratinocytes; assay: ROS detection in H2O2-treated human derived keratinocytes (Example 3: alpha-tocopherol, EGT, niacinamide); assay type: cell-based; conditions: alpha-tocopherol 0.001% as printed, EGT 0.01%, niacinamide 0.01%; for % Decrease in ROS generated in keratinocyte by antioxidant treatment: 0.3 wt.% H2O2; for Fold Change, decrease in ROS generated in keratinocyte by antioxidant treatment (relative to untreated): vs F (0.1% DMSO + 0.3% H2O2)
Experimental: Hydrogen peroxide treated cells were then treated with: alpha-tocopherol, ergothioneine and niacinamide, respectively and in combination.
Cellular ROS/Superoxide Detection Assay Kit (Abcam—ab139476)

Row | SMILES | Fold Change, decrease in ROS generated in keratinocyte by antioxidant treatment (relative to untreated) [1] | % Decrease in ROS generated in keratinocyte by antioxidant treatment [2] [%] | Fold Change, decrease in ROS generated in keratinocyte by antioxidant treatment (relative to untreated) [2]
1 | O=C1CCC(C(=O)[O-])N1.[Na+] (stereo not drawn) [Na PCA, sodium pyrrolidone carboxylic acid] | 2.25-fold decrease | 25.75 | –
2 | Cc1c(C)c2c(c(C)c1O)CC[C@@](C)(CCC[C@H](C)CCC[C@H](C)CCCC(C)C)O2 [Alpha-tocopherol, alpha-tocopherol] | 4.21-fold decrease | 20.79 | 0.4-fold fold decrease
3 | C[N+](C)(C)[C@@H](Cc1c[nH]c(=S)[nH]1)C(=O)[O-] [EGT, Ergothioneine] | 4.43-fold decrease | 15.91 | 0.31-fold fold decrease
4 | NC(=O)c1cccnc1 [Niacinamide, niacinamide] | – | – | 0.24-fold fold decrease
